# Measurements reported in ChEMBL document CHEMBL1155917, “Use of the nitrile oxide cycloaddition (NOC) reaction for molecular probe generation: a new class of enzyme selective histone deacetylase inhibitors (HDACIs) showing picomolar activity at HDAC6” (J Med Chem, 2008).
# How the values were obtained:
# Histone deacetylase 1 = Histone deacetylase 1 (Homo sapiens, UniProt Q13547)
# Description: Inhibition of HDAC1 after 17 hrs
# BXPC-3 = experiment: Antiproliferative activity against human BxPC3 cells after 72 hrs by MTT assay; assay type: functional, cell-based; details: BXPC-3, 72 h
# Histone deacetylase 8 = target: T1, Histone deacetylase 8 (Homo sapiens, UniProt Q9BY41)
# T1 sequence (Q9BY41 whole entry): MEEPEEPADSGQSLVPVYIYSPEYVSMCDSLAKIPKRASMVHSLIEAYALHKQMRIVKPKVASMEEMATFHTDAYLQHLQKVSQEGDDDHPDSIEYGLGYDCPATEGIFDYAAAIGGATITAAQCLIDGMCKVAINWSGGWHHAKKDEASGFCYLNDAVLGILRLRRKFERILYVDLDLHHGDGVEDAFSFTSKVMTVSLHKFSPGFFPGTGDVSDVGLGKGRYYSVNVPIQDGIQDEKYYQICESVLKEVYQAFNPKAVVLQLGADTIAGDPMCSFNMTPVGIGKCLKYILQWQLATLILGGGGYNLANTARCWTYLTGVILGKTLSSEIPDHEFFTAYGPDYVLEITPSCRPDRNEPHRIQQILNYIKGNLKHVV
# Description: Inhibition of HDAC8 after 17 hrs
# [1] = target: T2, Polyamine deacetylase HDAC10 (Homo sapiens, UniProt Q969S8)
# T2 sequence (Q969S8 whole entry): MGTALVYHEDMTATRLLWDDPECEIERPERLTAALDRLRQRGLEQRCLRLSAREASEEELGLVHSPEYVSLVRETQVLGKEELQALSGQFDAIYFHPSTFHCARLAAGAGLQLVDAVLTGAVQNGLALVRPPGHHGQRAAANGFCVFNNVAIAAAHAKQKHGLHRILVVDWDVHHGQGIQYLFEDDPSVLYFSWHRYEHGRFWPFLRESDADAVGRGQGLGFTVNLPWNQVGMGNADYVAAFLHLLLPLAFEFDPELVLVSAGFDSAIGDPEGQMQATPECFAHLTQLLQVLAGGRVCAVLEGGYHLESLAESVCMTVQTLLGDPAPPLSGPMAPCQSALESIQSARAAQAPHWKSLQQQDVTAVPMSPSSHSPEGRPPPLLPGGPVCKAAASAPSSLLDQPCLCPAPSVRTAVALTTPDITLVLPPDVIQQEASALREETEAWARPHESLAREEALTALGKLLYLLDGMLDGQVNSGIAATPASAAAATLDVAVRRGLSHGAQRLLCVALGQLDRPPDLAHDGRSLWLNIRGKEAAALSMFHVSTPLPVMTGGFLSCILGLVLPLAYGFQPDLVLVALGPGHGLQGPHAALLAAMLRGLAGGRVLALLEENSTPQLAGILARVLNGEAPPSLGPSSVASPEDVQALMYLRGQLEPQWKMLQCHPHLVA
# Description: Inhibition of HDAC10 after 17 hrs
# [2] = target: T3, Protein deacetylase HDAC6 (Homo sapiens, UniProt Q9UBN7); experiment: Inhibition of HDAC6 after 17 hrs
# T3 sequence (Q9UBN7 whole entry): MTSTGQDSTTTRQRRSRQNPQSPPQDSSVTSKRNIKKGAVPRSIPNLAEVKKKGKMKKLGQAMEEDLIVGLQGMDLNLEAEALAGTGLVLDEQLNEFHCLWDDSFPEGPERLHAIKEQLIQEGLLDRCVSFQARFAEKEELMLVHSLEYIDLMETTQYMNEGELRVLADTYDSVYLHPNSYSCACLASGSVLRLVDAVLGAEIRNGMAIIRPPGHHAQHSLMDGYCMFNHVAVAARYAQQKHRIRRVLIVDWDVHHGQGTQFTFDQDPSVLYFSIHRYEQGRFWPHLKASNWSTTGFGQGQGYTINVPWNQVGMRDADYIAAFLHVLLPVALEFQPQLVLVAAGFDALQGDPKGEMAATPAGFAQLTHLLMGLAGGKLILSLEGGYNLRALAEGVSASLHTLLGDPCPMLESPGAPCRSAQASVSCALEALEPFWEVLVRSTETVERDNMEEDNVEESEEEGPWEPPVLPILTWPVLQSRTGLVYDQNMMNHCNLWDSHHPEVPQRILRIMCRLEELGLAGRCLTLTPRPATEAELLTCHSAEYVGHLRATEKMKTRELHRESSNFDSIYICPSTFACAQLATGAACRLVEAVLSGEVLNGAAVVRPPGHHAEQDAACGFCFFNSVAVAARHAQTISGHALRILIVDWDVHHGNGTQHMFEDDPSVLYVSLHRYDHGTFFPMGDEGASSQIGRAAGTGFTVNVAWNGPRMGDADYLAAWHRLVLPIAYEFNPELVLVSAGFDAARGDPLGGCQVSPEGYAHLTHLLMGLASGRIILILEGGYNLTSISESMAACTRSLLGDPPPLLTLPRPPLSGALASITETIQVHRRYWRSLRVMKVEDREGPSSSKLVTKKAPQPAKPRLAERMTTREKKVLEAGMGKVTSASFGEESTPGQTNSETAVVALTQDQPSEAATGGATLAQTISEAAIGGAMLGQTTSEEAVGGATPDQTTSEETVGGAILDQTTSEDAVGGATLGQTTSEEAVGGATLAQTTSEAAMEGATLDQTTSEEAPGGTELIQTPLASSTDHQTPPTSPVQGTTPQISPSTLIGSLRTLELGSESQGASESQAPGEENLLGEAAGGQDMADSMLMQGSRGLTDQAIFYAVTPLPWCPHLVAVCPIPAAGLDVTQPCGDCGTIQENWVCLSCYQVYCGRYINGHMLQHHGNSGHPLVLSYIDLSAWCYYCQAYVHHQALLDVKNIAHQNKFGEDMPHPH
# Histone deacetylase 2 = Histone deacetylase 2 (Homo sapiens, UniProt Q92769); experiment: Inhibition of HDAC2 after 17 hrs
# Histone deacetylase 3 = Histone deacetylase 3 (Homo sapiens, UniProt O15379); experiment: Inhibition of HDAC3 after 17 hrs
# [3] = Antiproliferative activity against human Panc04.03 cells after 72 hrs by MTT assay; assay type: functional, cell-based; details: Panc 04.03, 72 h
# HuP-T3 = experiment: Antiproliferative activity against human HupT3 cells after 72 hrs by MTT assay; assay type: functional, cell-based; details: HuP-T3, 72 h
# MIA PaCa-2 = experiment: Antiproliferative activity against human MiaPaca2 cells after 72 hrs by MTT assay; assay type: functional, cell-based; details: MIA PaCa-2, 72 h
# [4] = Antiproliferative activity against human SU.86.86 cells after 72 hrs by MTT assay; assay type: functional, cell-based; details: SU.86.86, 72 h
# HMEC = experiment: Cytotoxicity against HMEC after 72 hrs by MTT assay; assay type: ADME, cell-based; details: Homo sapiens
# [5] = Cytotoxicity against HPDE 6c7 cells after 72 hrs by MTT assay; assay type: ADME, cell-based; details: Homo sapiens, HPDE6c7, 72 h
# Histone deacetylase 1, sequence (Q13547 whole entry): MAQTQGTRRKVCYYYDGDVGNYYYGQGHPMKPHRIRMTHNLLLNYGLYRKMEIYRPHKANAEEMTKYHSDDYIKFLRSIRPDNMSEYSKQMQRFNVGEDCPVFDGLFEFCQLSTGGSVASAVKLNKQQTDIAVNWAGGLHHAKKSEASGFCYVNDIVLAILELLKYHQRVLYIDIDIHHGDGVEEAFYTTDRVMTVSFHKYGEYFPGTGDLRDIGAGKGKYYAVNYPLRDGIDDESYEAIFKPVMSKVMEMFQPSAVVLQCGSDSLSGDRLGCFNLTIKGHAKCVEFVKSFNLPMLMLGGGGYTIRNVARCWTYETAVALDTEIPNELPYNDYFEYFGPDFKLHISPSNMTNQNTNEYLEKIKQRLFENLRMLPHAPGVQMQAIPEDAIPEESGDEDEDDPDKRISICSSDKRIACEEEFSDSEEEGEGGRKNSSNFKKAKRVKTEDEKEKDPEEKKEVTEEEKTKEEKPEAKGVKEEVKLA
# Histone deacetylase 2, sequence (Q92769 whole entry): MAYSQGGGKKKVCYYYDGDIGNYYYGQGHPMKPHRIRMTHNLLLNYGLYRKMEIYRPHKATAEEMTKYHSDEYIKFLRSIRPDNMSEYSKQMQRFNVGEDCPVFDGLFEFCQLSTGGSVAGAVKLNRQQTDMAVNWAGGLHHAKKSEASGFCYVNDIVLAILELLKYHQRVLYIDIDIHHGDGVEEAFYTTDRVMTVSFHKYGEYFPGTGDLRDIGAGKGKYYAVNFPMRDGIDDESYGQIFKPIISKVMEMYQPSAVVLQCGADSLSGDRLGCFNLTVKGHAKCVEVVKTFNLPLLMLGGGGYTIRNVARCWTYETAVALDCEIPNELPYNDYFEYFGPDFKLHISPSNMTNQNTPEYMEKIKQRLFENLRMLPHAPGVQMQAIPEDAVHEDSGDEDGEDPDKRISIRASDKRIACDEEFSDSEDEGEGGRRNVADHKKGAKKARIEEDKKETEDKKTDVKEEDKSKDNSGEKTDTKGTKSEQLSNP
# Histone deacetylase 3, sequence (O15379 whole entry): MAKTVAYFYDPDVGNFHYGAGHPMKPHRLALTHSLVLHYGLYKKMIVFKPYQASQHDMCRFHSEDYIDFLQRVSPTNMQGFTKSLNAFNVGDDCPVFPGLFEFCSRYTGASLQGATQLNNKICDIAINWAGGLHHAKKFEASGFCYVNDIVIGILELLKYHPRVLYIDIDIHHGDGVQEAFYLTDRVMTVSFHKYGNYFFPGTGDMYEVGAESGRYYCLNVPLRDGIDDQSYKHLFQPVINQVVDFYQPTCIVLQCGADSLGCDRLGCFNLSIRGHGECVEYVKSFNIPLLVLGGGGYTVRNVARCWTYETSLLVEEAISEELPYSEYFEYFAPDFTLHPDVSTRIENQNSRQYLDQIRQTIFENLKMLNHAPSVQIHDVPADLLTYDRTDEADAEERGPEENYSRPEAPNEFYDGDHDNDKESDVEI
Structure (SMILES),IC50 (Histone deacetylase 1) [nM],IC50 (BXPC-3) [µM],IC50 (Histone deacetylase 8) [µM],IC50 [1] [nM],IC50 [2] [nM],IC50 (Histone deacetylase 2) [nM],IC50 (Histone deacetylase 3) [nM],IC50 [3] [µM],IC50 (HuP-T3) [nM],IC50 (MIA PaCa-2) [nM],IC50 [4] [nM],IC50 (HMEC) [nM],IC50 [5] [nM]
Nc1cccc(-c2cc(C(=O)NCCCCC(=O)NO)no2)c1,716,38,3.43,840,72.2,1940,144,> 50,37000,25000,25000,–,–
CC(C)(C)OC(=O)Nc1ccc(-c2cc(C(=O)NCCCCC(=O)NO)no2)cc1,628,25,3.65,690,31.6,1740,115,16,10000,12000,24000,–,–
Nc1ccc(-c2cc(C(=O)NCCCCCCC(=O)NO)no2)cc1,56.3,0.8,3.46,44.9,5.86,147,10.2,0.1,200,100,800,< 1000,400
O=C(CCCCNC(=O)c1cc(-c2ccccc2)on1)NO,644,28,3.58,852,61.9,1690,158,5,5000,4000,5000,–,–
Nc1cccc(-c2cc(C(=O)NCCCCCCC(=O)NO)no2)c1,20.7,0.7,0.938,17.5,2.54,56.7,4.04,0.9,100,100,200,< 1000,200
Nc1ccc(-c2cc(C(=O)NCCCCC(=O)NO)no2)cc1,360,33,2.83,401,35.1,1050,65.8,17,7000,10000,11000,–,–
CC(=O)Nc1ccc(-c2cc(C(=O)NCCCCCCC(=O)NO)no2)cc1,64.5,6,4.9,73,6.81,131,18,4,1000,900,1000,–,–
CC(C)(C)OC(=O)Nc1cccc(-c2cc(C(=O)NCCCCCCC(=O)NO)no2)c1,100,1,8.1,28.2,< 0.002,238,< 0.002,1,800,700,1000,7000,1500
CC(C)(C)OC(=O)Nc1cccc(-c2cc(C(=O)NCCCCC(=O)NO)no2)c1,826,36,5.81,891,3.98,2980,83.6,14,14000,8000,22000,–,–
CC(C)(C)OC(=O)Nc1ccc(-c2cc(C(=O)NCCCCCCC(=O)NO)no2)cc1,271,1,6.85,90.7,–,252,0.42,0.1,300,100,600,< 1000,500
O=C(CCCCOCc1cc(-c2ccccc2)on1)NO,124,7,3.32,155,49.5,133,12.9,1.5,400,1000,1000,–,–
